The record followed here is PubChem BioAssay (NCI).

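Compound exposure: 48 hours, 5 concentrations, 96-well plates. At the TGI there is no net growth.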 Bounds are passed on as bounds.

Among the test systems are DLD-1 colon; RXF-631 renal; DMS 114 small cell lung; MDA-N.
Holding throughout (test): inhibition of tumour cell growth, NCI panel, 48 h

Turning to `COc1cc(O)c2c(c1)C(=O)c1cc(C)cc(O)c1C2=O`, the TGI with DLD-1 colon, in the test with RXF-631 renal and with DMS 114 small cell lung was greater than 100 µM throughout.
The molecule `Cn1c(Sc2ccc(-c3cccnc3)n2C)ccc1-c1cccnc1` had a TGI in the test with MDA-N of 25.3 µM.
Turning to `Cc1cc(=O)oc2c1cc(OCC(=O)OCCN1CCCCC1)c1occ(C)c12`, the TGI in the test on DLD-1 colon and in the test on DMS 114 small cell lung was greater than 100 µM each time.
Molecule `NC(=O)Nc1cc(O)ccc1N=Nc1ccc(S(=O)(=O)Nc2ccccn2)cc1` gave a TGI in the test on DMS 114 small cell lung greater than 100 µM.
As for `CC(CO)(CO)Nc1ncnc2ccccc12`, the TGI in the test on MDA-N is greater than 100 µM.
Regarding `CCOC(=O)NC`, the TGI in the test on MDA-N is greater than 100 µM.
Turning to `Nc1nnc(N)n1NC(=O)C(=O)Nc1ccc([N+](=O)[O-])cc1`, the TGI in the test with DLD-1 colon, in the test with RXF-631 renal and in the test on DMS 114 small cell lung was greater than 100 µM each time.
The molecule `O=C(O)C1=NNC(C(=O)O)=NN1` had a TGI with DLD-1 colon greater than 100 µM.
Molecule `CCCCCCCCCCCCCCCCOCC(COP(=O)([O-])OCC[n+]1ccc(N(C)C)cc1)OCC` (configuration not stated) came in with a TGI with MDA-N of 30.8 µM.
For the molecule `COc1c(Cl)cc(S(=O)O)cc1Cl`, the TGI in the test on DLD-1 colon and in the test with DMS 114 small cell lung was greater than 100 µM throughout.
Molecule `O=C1c2ccccc2C(=O)c2c1ccc(C(=O)O)c2-c1ccc2ccccc2c1` came in with a TGI in the test on MDA-N of 79.2 µM.
